Experimental data: PMC6219668 (Oncotarget, 2018)

Test system: panel of nearly 500 cancer cell lines
Assay: Cancer Cell Line Encyclopedia profiling, 3-day CellTiter-Glo
Type: cell-based
Set-up: Amax: unit not given here

SMILES: CC(=O)c1c(C)c2cnc(Nc3ccc(N4CCNCC4)cn3)nc2n(C2CCCC2)c1=O [Palbociclib, reference compound]
- EC50 (Homo sapiens, P3HR-1): > 8 µM
- EC50 (Homo sapiens, P31-FUJ): > 8 µM
- EC50 (Homo sapiens, PANC-03-27): > 8 µM
- EC50 (Homo sapiens, PLC-PRF-5): 1.79 µM
- EC50 (Homo sapiens, Panc 02.03): 1.14 µM
- EC50 (Homo sapiens, Panc 04.03): > 8 µM
- EC50 (Homo sapiens, Panc1005): > 8 µM
- EC50 (Homo sapiens, Pfeiffer): 6.95 µM
- EC50 (Homo sapiens, RL95-2): > 8 µM
- EC50 (Homo sapiens, RT-112): 2.29 µM
- EC50 (Homo sapiens, RVH-421): 0.689 µM
- EC50 (Homo sapiens, Raji): > 8 µM
- EC50 (Homo sapiens, SAOS-2): > 8 µM
- EC50 (Homo sapiens, SBC-5): 1.11 µM
- EC50 (Homo sapiens, SCC-25): 0.782 µM
- EC50 (Homo sapiens, SCaBER): > 8 µM
- EC50 (Homo sapiens, SF-126): > 8 µM
- EC50 (Homo sapiens, SF-295): > 8 µM
- EC50 (Homo sapiens, SHP77): > 8 µM
- EC50 (Homo sapiens, SJRH30): > 8 µM
- EC50 (Homo sapiens, SJSA-1): > 8 µM
- EC50 (Homo sapiens, SK-BR-3): > 8 µM
- EC50 (Homo sapiens, SK-CO-1): > 8 µM
- EC50 (Homo sapiens, SK-ES1): 6.37 µM
- EC50 (Homo sapiens, SK-HEP1): 0.516 µM
- EC50 (Homo sapiens, SK-LU-1): > 8 µM
- EC50 (Homo sapiens, SK-MEL-2): > 8 µM
- EC50 (Homo sapiens, SK-MEL-5): > 8 µM
- EC50 (Homo sapiens, SK-MEL-24): > 8 µM
- EC50 (Homo sapiens, SK-MEL-30): > 8 µM
- EC50 (Homo sapiens, SK-MM-2): 2.62 µM
- EC50 (Homo sapiens, SK-N-AS): 1.11 µM
- EC50 (Homo sapiens, SK-N-DZ): 2.73 µM
- EC50 (Homo sapiens, SK-N-SH): 1.25 µM
- EC50 (Homo sapiens, SK-OV-3): 2.22 µM
- EC50 (Homo sapiens, SKNBE2): 4.99 µM
- EC50 (Homo sapiens, SNU1): > 8 µM
- EC50 (Homo sapiens, SNU-16): > 8 µM
- EC50 (Homo sapiens, SNU-182): > 8 µM
- EC50 (Homo sapiens, SNU-423): 2.01 µM
- EC50 (Homo sapiens, SNU-449): > 8 µM
- EC50 (Homo sapiens, SNU-C2B): > 8 µM
- EC50 (Homo sapiens, SU-DHL10): 3.42 µM
- EC50 (Homo sapiens, SU-DHL-8): 0.475 µM
- EC50 (Homo sapiens, SU.86.86): > 8 µM
- EC50 (Homo sapiens, SUP-T1): > 8 µM
- EC50 (Homo sapiens, SW48): > 8 µM
- EC50 (Homo sapiens, SW480): 1.24 µM
- EC50 (Homo sapiens, SW780): 0.832 µM
- EC50 (Homo sapiens, SW900): > 8 µM
- EC50 (Homo sapiens, SW1353): > 8 µM
- EC50 (Homo sapiens, SW1990): 5.78 µM
- EC50 (Homo sapiens, SW-403): > 8 µM
- EC50 (Homo sapiens, SW-620): 2.93 µM
- EC50 (Homo sapiens, T47D): > 8 µM
- EC50 (Homo sapiens, T98G): > 8 µM
- EC50 (Homo sapiens, TCC-SUP): 2.08 µM
- EC50 (Homo sapiens, TOV21G): > 8 µM
- EC50 (Homo sapiens, TOV112D): 2.03 µM
- EC50 (Homo sapiens, Toledo): > 8 µM
- EC50 (Homo sapiens, U2OS): 3.62 µM
- EC50 (Homo sapiens, U-87 MG): 2.01 µM
- EC50 (Homo sapiens, U-118-MG): 0.523 µM
- EC50 (Homo sapiens, U-937): > 8 µM
- EC50 (Homo sapiens, UACC-812): > 8 µM
- EC50 (Homo sapiens, UMUC3): > 8 µM
- EC50 (Homo sapiens, YKG-1): 7.39 µM
- EC50 (Homo sapiens, ZR-75-30): > 8 µM
- EC50 (Hs766T): 1.52 µM
- EC50 (IGR-39): > 8 µM
- EC50 (JHH-2): > 8 µM
- EC50 (JHH-4): > 8 µM
- EC50 (JMSU-1): 1.32 µM
- EC50 (KE-97): 2.26 µM
- EC50 (KMRC-1): > 8 µM
- EC50 (KMS-26): 1.33 µM
- EC50 (LOU-NH91): > 8 µM
- EC50 (LUDLU-1): 0.74 µM
- EC50 (NCI-H322): > 8 µM
- EC50 (NCI-H1568): 2.63 µM
- EC50 (NCI-H1915): > 8 µM
- EC50 (NCI-H2023): 1.12 µM
- EC50 (NCI-H2172): > 8 µM
- EC50 (OCUM1): 1.37 µM
- EC50 (OE21): 4.75 µM
- EC50 (ONCO-DG-1): > 8 µM
- EC50 (PK-59): 1.51 µM
- EC50 (PL45): > 8 µM
- EC50 (SH-10-TC): > 8 µM
- EC50 (SUIT-2): 1.18 µM
- EC50 (SUP-M2): > 8 µM
- EC50 (SW579): 1.3 µM
- EC50 (SW1271): > 8 µM
- EC50 (TC-71): > 8 µM
- Amax (a172 (central_nervous_system)): 3.605
- Amax (a204 (soft_tissue)): -34.4227
- Amax (a253 (salivary_gland)): 3.868
- Amax (a375 (skin)): -26.2658
- Amax (a2058 (skin)): 2.616
- Amax (a2780 (ovary)): -39.663
- Amax (gb1 (central_nervous_system)): -42.437
- Amax (gciy (stomach)): -7.059
- Amax (gct (soft_tissue)): -52.5722
- Amax (glc82 (lung)): -19.1977
- Amax (gms10 (central_nervous_system)): -27.0424
- Amax (h4 (central_nervous_system)): -32.9184
- Amax (hcc15 (lung)): -12.0125
- Amax (hcc56 (large_intestine)): -4.352
- Amax (hcc70 (breast)): -11.029
- Amax (hcc78 (lung)): -19.9044
- Amax (hcc1187 (breast)): -9.361
- Amax (hcc1569 (breast)): -39.1174
- Amax (hcc1806 (breast)): 0.7921
- Amax (hcc1954 (breast)): -54.5847
- Amax (hcc2935 (lung)): -14.5087
- Amax (hcc4006 (lung)): -19.6287
- Amax (hct15 (large_intestine)): -2.41
- Amax (hct116 (large_intestine)): 1.94
- Amax (hec1a (endometrium)): -22.7551
- Amax (hec1b (endometrium)): -58.5184
- Amax (hec59 (endometrium)): -33.0687
- Amax (hec151 (endometrium)): -3.536
- Amax (hec251 (endometrium)): -0.6256
- Amax (hec265 (endometrium)): 2.121
- Amax (hel9217 (haematopoietic_and_lymphoid_tissue)): 11.0391
- Amax (hep3b217 (liver)): 6.257
- Amax (hepg2 (liver)): -38.1063
- Amax (heya8 (ovary)): -39.168
- Amax (hgc27 (stomach)): -60.1752
- Amax (hh (haematopoietic_and_lymphoid_tissue)): -43.6309
- Amax (hle (liver)): -2.411
- Amax (hlf (liver)): 2.5318
- Amax (hmc18 (breast)): -23.3461
- Amax (hmcb (skin)): -32.1017
- Amax (hos (bone)): -5.005
- Amax (hpac (pancreas)): -39.6565
- Amax (hs229t (lung)): -46.3597
- Amax (hs294t (skin)): -3.363
- Amax (hs578t (breast)): -24.7522
- Amax (hs683 (central_nervous_system)): -14.5926
- Amax (hs695t (skin)): -1.411
- Amax (hs739t (breast)): -16.3381
- Amax (hs746t (stomach)): -17.4326
- Amax (hs766t (pancreas)): -19.984
- Amax (hs840t (upper_aerodigestive_tract)): -48.5098
- Amax (hs852t (skin)): -23.0246
- Amax (hs895t (skin)): -52.8812
- Amax (hs936t (skin)): -33.7794
- Amax (hs939t (skin)): -41.6297
- Amax (hs944t (skin)): -2.178
- Amax (hsc2 (upper_aerodigestive_tract)): 2.874
- Amax (ht29 (large_intestine)): -25.1424
- Amax (ht144 (skin)): 4.385
- Amax (ht1080 (soft_tissue)): 5.952
- Amax (ht1197 (urinary_tract)): 6.185
- Amax (ht1376 (urinary_tract)): 5.627
- Amax (ht (haematopoietic_and_lymphoid_tissue)): 15.5049
- Amax (hucct1 (biliary_tract)): -2.064
- Amax (huh1 (liver)): -48.0113
- Amax (hupt3 (pancreas)): -32.9102
- Amax (hupt4 (pancreas)): -9.371
- Amax (hut78 (haematopoietic_and_lymphoid_tissue)): -6.156
- Amax (ialm (lung)): 2.617
- Amax (igr37 (skin)): -4.699
- Amax (igr39 (skin)): 3.52
- Amax (igrov1 (ovary)): 1.295
- Amax (imr32 (autonomic_ganglia)): -46.7636
- Amax (ipc298 (skin)): -1.835
- Amax (istmes1 (pleura)): -16.4542
- Amax (istmes2 (pleura)): -52.8976
- Amax (j82 (urinary_tract)): -1.0373
- Amax (jhh2 (liver)): -0.7698
- Amax (jhh4 (liver)): 0.2039
- Amax (jhh6 (liver)): 2.0754
- Amax (jhos2 (ovary)): 7.671
- Amax (jhos4 (ovary)): 13.7773
- Amax (jm1 (haematopoietic_and_lymphoid_tissue)): -48.4258
- Amax (jmsu1 (urinary_tract)): -46.3166
- Amax (k029ax (skin)): -20.9241
- Amax (kals1 (central_nervous_system)): 3.749
- Amax (karpas299 (haematopoietic_and_lymphoid_tissue)): -53.2153
- Amax (karpas422 (haematopoietic_and_lymphoid_tissue)): 0.8347
- Amax (ke39 (stomach)): -57.8035
- Amax (ke97 (haematopoietic_and_lymphoid_tissue)): -62.2019
- Amax (kg1 (haematopoietic_and_lymphoid_tissue)): 7.475
- Amax (kle (endometrium)): -0.3583
- Amax (kmbc2 (urinary_tract)): -20.7254
- Amax (kmrc1 (kidney)): -29.7335
- Amax (kms12bm (haematopoietic_and_lymphoid_tissue)): -27.7827
- Amax (kms26 (haematopoietic_and_lymphoid_tissue)): -78.7112
- Amax (kns42 (central_nervous_system)): -28.8816
